The text below walks through data of US4395391A, “Unsymmetrically substituted dicarboxylic-acid-bis-(2,4,6-triiodo-anilides), their preparation, and x-ray contrast media containing same” (priority 1980, dated 1983).

The nature of data set [1]: distribution coefficient butanol/water, pH 7.4. Conditions: meglumine salts. Type of data set: physicochemical. The text has this: By providing the compounds of this invention wherein only one of the two 5,5',-position hydrogen atoms is substituted, new contrast-producing substances are obtained. […] This can be shown by comparing the values of protein binding, compatibility, biliary and renal excretion of the meglumine salts of the conventional agent iodipamide (B) and an agent of this invention, hexane-diacid-1-(3-carboxy-2,4,6-triiodo-anilide)-6-(3-carboxy-5-N-methyl- carbamoyl-2,4,6-triido-anilide) (A).

Data set [2] concerns rat. Put plainly: ED50 rat, intracisternal. The settings on record: 200-250 g rat, diluted with 3% mannite solution. It counts as in vivo. On the procedure: (§1) least 4 doses were tested on 10 animals. The effectiveness criteria used
(§2) are the states of excitation, grave behavioral anomalies, coma and death
(§3) over the period of 24 h.
(3) With the test equipment essentially the same ss in (2), 200-250 g rat
are injected with contrast media in the cisterna suboccipitalis. The
contrast media were diluted with a 3% mannite solution to adjust the […]

Data set [3] relates to rat. Put plainly: LD50, i.v., rat. The settings on record: meglumine salt solutions 180 mg iodine per ml, 0.8 ml/minute. It counts as in vivo. How it is done:
(1) The contrast media were injected in the form of meglumine salt
solutions of 180 mg of iodine per ml at a rate of 0.8 ml/minute into male

Data set [4] relates to rat. The data set can be described thus: ED50 rat, pericerebrally (excitation, grave behavioral anomalies, coma and death over 24 h). It counts as in vivo. The settings on record: pericerebral (intracerebral) injection, 0.4 ml, rats about 100 g. On the procedure: (2) Male and female rats of about 100 g in weight were injected
intracerebrally between the cheekbone and the occiputal bone through a
natural bone hole of the cranium while being slightly anesthesized with
ether. 0.4 ml injections of contrast media solutions of various
concentrations were used according to the method of Valzelli. The
injection was carried out with a Hamilton syringe 710 N for which the
penetration depth is limited to 10 mm. Depending on the preparation, at
as §1, §2, §3

The test system of data set [5] is liver parenchyma. The settings on record: cited from earlier work.
Data set [6] concerns liver parenchyma. Conditions: cited from earlier work. This is another data set of the same source.
In another data set the test system is dog liver. The data set can be described thus: computer tomography: maximum enrichment of contrast medium in dog liver. The settings on record: 360 mg I/kg, intravenous, meglumine salt solutions 180 mg of I/ml, beagles. Type of data set: in vivo, dog (beagle). The text has this:
The extraordinarily pronounced enrichment of the compounds of this invention is shown in Table 2 listing the maximal enrichment in the liver following intravenous administration of the meglumine salt solutions of the prior art iosefamic acid (D) and of a compound of this invention, 3-oxapentane-diacid-1-([…]-2,4,6-triiodo-N-methylanilide)-5-(3-carboxy-5-N-methylcarbamoyl-2,4,6-triiodo-anilide) (E).
The values were obtained from healthy male and female beagles (Schering, breeder) with weights of 9-14 kg. The meglumine salt solutions contained 180 mg of I/ml.
The investigation of the x-ray density of the liver before administration of the contrast media and every 5 minutes up to 90 minutes thereafter was carried out using a full-body scanner of the EMI CT 5005/12 type, which operates on the basis of the rotation-translation principle. The scanning time was 20 seconds, the tube voltage 120 kv. For an image matrix of 320×320 elements, the standard deviation from the mean value of a normalized water phantom was 1.6% (i.e., +/-8 EU=EMI units). The computer tomograms were analyzed always on the same liver area by means of the analyzer "IVC" of the EMI Co.

As for `O=C(CCCCC(=O)Nc1c(I)cc(I)c(C(=O)O)c1I)Nc1c(I)cc(I)c(C(=O)O)c1I` [B, iodipamide], in data set [1], the “distribution coefficient, butanol/water, pH 7.4” value is given as 0.278 +/- 0.008. Further, the “rat, intracisternal ED50” value with rat [2] is 1.07 (0.54-1.83) mg of I per kg. Further, the “LD50, i.v., rat” value with rat [3] is given as 2.6 g of I/kg. For the same molecule, the “rat, pericerebrally ED50” value with rat [4] was 6.35 (5.11-7.44) mg of I/kg.

As to `CNC(=O)c1c(I)c(NC(=O)CCCCC(=O)Nc2c(I)cc(I)c(C(=O)O)c2I)c(I)c(C(=O)O)c1I` [Compound A, Hexane-diacid-1-(3-carboxy-2,4,6-triiodo-anilide)-6-(3-carboxy-5-N-methylcarbamoyl-2,4,6-triiodo-anilide)], the “distribution coefficient, butanol/water, pH 7.4” value in data set [1] is listed as 0.083 +/- 0.001. Further, in the data set with rat [2], the “rat, intracisternal ED50” value is reported as 15.6 (11.5-21.1) mg of I per kg. The “LD50, i.v., rat” value in the data set with rat [3] is listed as 5.5 g of I/kg. Further, in the data set on rat [4], the “rat, pericerebrally ED50” value is recorded as 17.1 (11.8-23.6) mg of I/kg.

As to `CNC(=O)c1c(I)c(NC(=O)CCCCCCCCC(=O)Nc2c(I)c(C(=O)O)c(I)c(C(=O)NC)c2I)c(I)c(C(=O)O)c1I` [D, iosefamic acid], the “liver concentration for diagnosis improvement, humans” value with liver parenchyma [5] is listed as “not in humans”. Besides, the “liver concentration for diagnosis improvement, dog” value in the data set on liver parenchyma [6] was “still adequate liver concentration for diagnosis improvement in the dog”. For the same molecule, in the data set on dog liver, the “Maximum enrichment in dog liver” value was determined as 22.8 EMI units and the “time of maximum enrichment in dog liver (min. p. appl.)” value is 80 min. p. appl.

As to `CNC(=O)c1c(I)c(NC(=O)COCC(=O)N(C)c2c(I)cc(I)c(C(=O)O)c2I)c(I)c(C(=O)O)c1I` [E, 3-oxapentane-diacid-1-(3-carboxy-2,4,6-triiodo-N-methylanilide)-5-(3-carboxy-5-N-methylcarbamoyl-2,4,6-triiodo-anilide)], in the data set with dog liver, the “time of maximum enrichment in dog liver (min. p. appl.)” value was 90 min. p. appl.
